In experiment [1] the target is Estrogen receptor beta (Homo sapiens, UniProt Q92731). In words: Agonist activity at ERbeta-LBD expressed in HEK293 cells assessed as Gal4-DBD interaction by cellular mammalian one hybrid assay relative to estradiol. Format: functional, cell-based.
In experiment [2] the target is T1, Bile acid receptor (Homo sapiens) (UniProt Q96RI1).
T1 sequence (whole entry): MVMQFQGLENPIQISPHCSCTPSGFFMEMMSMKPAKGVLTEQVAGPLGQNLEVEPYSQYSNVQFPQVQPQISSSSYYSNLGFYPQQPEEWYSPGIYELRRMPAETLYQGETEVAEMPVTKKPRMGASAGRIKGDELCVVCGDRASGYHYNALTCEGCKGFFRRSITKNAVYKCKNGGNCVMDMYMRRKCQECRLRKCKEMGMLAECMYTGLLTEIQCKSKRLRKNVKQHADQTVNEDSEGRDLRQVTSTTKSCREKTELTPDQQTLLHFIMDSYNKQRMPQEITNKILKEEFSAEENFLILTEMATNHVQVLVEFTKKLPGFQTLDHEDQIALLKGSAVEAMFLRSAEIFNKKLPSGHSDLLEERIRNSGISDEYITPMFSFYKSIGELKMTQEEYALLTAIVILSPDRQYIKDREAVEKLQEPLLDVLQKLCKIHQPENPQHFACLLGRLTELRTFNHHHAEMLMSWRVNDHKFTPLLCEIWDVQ
In words: Agonist activity at human full length FXR transfected in HEK293 cells coexpressing pTRexDest/pGL2promotor assessed as luciferase activity by direct reporter cellular assay relative to GW-4064. It counts as functional, cell-based.

The target of experiment [3] is T2, Bile acid receptor (Homo sapiens, UniProt Q96RI1).
T2 sequence (Q96RI1 whole entry): T1 sequence (whole entry)
Briefly: Agonist activity at human full length FXR transfected in HEK293 cells coexpressing pTRexDest/pGL2promotor assessed as luciferase activity by direct reporter cellular assay. It counts as functional, cell-based. Conditions: read-out: EC50.

Experiment [4] addresses T2, Bile acid receptor. Briefly: Agonist activity at human GST-fused FXR LBD assessed as cofactor peptide interaction with receptor ligand binding domain by FRET assay.
Experiment [5] concerns the target T3, Mineralocorticoid receptor (Homo sapiens, UniProt P08235).
T3 sequence (P08235 whole entry): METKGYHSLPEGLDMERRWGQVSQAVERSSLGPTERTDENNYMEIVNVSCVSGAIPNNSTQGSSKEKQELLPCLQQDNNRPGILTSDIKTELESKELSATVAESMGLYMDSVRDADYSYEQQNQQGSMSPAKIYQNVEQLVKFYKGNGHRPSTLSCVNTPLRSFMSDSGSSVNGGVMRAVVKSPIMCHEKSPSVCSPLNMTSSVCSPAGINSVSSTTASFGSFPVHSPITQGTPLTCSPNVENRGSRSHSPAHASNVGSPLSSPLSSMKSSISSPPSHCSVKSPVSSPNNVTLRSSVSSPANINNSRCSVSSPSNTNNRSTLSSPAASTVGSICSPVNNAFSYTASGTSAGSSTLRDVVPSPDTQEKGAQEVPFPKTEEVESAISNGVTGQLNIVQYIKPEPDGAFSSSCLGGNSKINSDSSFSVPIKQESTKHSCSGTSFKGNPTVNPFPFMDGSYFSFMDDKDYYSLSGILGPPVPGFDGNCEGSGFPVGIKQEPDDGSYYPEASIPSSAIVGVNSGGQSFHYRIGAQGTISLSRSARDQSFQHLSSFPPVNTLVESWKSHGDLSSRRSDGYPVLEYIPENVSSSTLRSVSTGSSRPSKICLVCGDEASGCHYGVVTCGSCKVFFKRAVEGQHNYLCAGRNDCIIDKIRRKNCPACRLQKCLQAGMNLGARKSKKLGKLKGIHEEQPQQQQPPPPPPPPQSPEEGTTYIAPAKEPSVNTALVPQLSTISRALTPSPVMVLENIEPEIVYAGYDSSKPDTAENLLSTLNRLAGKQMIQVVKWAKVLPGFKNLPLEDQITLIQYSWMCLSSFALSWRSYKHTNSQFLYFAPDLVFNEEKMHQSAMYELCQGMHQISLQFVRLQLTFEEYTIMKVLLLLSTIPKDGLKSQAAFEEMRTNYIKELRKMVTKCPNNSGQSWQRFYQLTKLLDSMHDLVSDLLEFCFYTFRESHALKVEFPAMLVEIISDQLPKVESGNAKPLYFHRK
In words: Agonist activity at mineralocorticoid receptor-LBD expressed in HEK293 cells assessed as Gal4-DBD interaction by cellular mammalian one hybrid assay. Format: functional, cell-based.

Experiment [6] addresses T4, Peroxisome proliferator-activated receptor gamma (Homo sapiens) (UniProt P37231).
T4 sequence (whole entry): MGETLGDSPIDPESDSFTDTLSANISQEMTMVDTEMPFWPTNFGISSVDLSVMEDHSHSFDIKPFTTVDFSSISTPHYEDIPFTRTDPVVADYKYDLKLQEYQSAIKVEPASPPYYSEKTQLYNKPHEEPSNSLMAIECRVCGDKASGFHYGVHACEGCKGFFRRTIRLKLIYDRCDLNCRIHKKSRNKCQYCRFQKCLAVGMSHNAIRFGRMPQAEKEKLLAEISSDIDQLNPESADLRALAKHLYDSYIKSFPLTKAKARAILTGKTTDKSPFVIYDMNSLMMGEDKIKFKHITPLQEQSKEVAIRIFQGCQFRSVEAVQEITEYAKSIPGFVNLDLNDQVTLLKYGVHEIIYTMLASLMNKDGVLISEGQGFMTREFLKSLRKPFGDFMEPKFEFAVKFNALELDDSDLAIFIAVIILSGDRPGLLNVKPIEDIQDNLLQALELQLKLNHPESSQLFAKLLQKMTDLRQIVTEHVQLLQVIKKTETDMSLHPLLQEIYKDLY
Briefly: Agonist activity at PPARgamma-LBD expressed in HEK293 cells assessed as Gal4-DBD interaction by cellular mammalian one hybrid assay relative to rosiglitazone. Format: functional, cell-based.

The target of experiment [7] is T5, Oxysterols receptor LXR-alpha (Homo sapiens) (UniProt Q13133).
T5 sequence (whole entry): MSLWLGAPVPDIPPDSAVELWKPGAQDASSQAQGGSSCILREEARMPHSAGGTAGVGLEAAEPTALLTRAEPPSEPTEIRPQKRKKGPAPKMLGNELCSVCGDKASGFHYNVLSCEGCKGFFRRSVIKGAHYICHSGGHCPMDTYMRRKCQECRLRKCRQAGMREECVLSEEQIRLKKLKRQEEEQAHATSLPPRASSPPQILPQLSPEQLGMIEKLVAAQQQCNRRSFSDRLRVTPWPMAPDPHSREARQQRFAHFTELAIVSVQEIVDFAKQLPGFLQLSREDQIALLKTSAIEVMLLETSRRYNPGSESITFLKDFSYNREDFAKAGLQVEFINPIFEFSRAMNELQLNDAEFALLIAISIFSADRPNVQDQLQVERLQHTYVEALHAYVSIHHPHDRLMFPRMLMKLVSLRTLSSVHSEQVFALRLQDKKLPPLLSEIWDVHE
Briefly: Agonist activity at LXRalpha-LBD expressed in HEK293 cells assessed as Gal4-DBD interaction by cellular mammalian one hybrid assay relative to T0901317. Format: functional, cell-based.

Chain of Estrogen receptor beta (Q92731 whole entry, the tested form may be a part): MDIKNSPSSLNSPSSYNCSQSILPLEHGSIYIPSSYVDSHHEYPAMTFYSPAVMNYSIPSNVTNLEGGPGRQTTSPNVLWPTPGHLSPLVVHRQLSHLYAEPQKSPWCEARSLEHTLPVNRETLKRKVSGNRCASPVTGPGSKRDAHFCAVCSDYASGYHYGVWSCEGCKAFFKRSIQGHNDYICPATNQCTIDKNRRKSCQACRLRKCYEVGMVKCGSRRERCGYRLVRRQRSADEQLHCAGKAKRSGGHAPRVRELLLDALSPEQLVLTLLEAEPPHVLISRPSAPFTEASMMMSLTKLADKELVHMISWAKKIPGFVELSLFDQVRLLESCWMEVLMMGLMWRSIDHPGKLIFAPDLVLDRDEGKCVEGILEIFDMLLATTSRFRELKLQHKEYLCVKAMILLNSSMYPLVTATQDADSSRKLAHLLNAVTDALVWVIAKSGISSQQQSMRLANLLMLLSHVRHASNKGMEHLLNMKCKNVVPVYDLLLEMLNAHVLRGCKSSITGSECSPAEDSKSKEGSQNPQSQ

In the case of `CN(Cc1ccc(C(=O)O)cc1)c1ccc(OCc2c(-c3c(Cl)cccc3Cl)noc2C2CC2)nc1C(F)(F)F`, the Efficacy in experiment [1] was 0%; in experiment [2], 60%; in experiment [6], 0%; in experiment [7] it was 0%. Further, the values for the EC50 in experiment [3], in experiment [4] and in experiment [5] were 6 nM, 12 nM and over 10000 nM, respectively.
In the case of `CN(Cc1cccc(C(=O)O)c1)c1ccc(OCc2c(-c3c(Cl)cccc3Cl)noc2C2CC2)nc1C(F)(F)F`, the Efficacy was found to be 20% in experiment [1], 43% in experiment [2], 10% in experiment [6] and 0% in experiment [7]. Besides, the EC50 in experiment [3] is 2 nM; in experiment [4], 3 nM; in experiment [5], over 10000 nM.
As for `CC(C)c1onc(-c2c(Cl)cccc2Cl)c1COc1ccc(N(C)Cc2ccc(C(=O)O)cc2)c(C(F)(F)F)n1`, the Efficacy was 0% in experiment [1], 57% in experiment [2], 0% in experiment [6] and 0% in experiment [7]. Further, the results for the EC50 in experiment [3], in experiment [4] and in experiment [5] were 15 nM, 22 nM and over 10000 nM, respectively.
